Laboratory results as given in patent publication US5814612A, “Retinol derivatives and uses thereof” (priority 1992, dated 1998).
Entries after “also recorded” stand apart in the source; their conditions may differ. Read-outs that look alike come from different tables or passages of the source.

What was measured:
[1] = system: 5/2 cells; assay: Growth-supporting activity on 5/2 cells in serum-free ITLB medium; assay type: cell-based, human
Experimental: The assay was done in 96-well microtiter plates in a final volume of 200 ul/well. The cells were cultured for 72 hours and cell growth determined by [^3 H] thymidine (0.8 μCi/well)labeling for the last 16 hours. Retinoids were added at the indicated concentrations at the initiation of culture and every 24 hours thereafter.
5/2 cells were grown in the absence of retinol in a medium containing the basic RPMI 1640 amino acid/salt mixture, insulin (5 μg/ml), transferrin (5 μg/ml), albumin (0.1%) and linoleic acid (10^-6 M) (ITLB). […] The dose-response curve shown in FIG. 26 indicates an effective concentration of 10^-7 M.

[2] = system: thymocytes; assay: Proliferation of anti-CD3 activated thymocytes in serum-free ITLB medium; assay type: cell-based, BALB/c mouse; details: for proliferative response of anti-CD3e activated thymocytes / growth kinetics over four days: retinol 3×10^-6 M, 14HRR 6×10^-7 M, human serum 3%; for growth kinetics over four days: 10^5 cells/well; for effectiveness relative to retinol: anti-CD3, 14HRR at 12 hour intervals
Experimental: FIG. 14A: Purified BALB/c thymocytes were activated with immobilized anti-CD3e antibody and cultivated for four days in ITLB medium with or without retinol (3×10^-6 M), 14HRR (6×10^-7 M) (fresh 14HRR was added every 12 hours), human serum (3%) or FCS (10%) at the cellular densities shown. Proliferation was assayed by tritiated thymidine incorporation into cellular DNA.
FIG. 14B: BALB/c thymocytes (10^6 /ml) were added to microtiter plates coated with titrated amounts of anti-CD3e antibody with […] retinol or without, as indicated. Proliferation was measured in hexaduplicate wells on day 3 by ^3 H thymidine incorporation assay.
Purified thymocytes (5×10^5 cells/well) were stimulated by TCR crosslinking with immobilized anti-CD3e antibody (FIG. 15A) or 0.4 μg/ml Con A (FIG. 15B) in serum-free ITLB medium. The indicated amounts of retinoids were added either once at the beginning of the experiment (marked as "1×") or every 12 hours thereafter (marked as "6×"). DNA synthesis was measured after 72 hours by tritiated thymidine uptake as described.
Purified thymocytes (10^5 cells/well) were activated with anti-CD3 antibody in ITLB medium with or without retinol (3×10^-6 M), 14HRR (6×10^-7, added every 12 hours or human serum (3%)). DNA synthesis was measured daily by a 4 hour pulse of tritiated thymidine.
Thymocytes (5×10^4 /well) were activated by immobilized anti-CD3 mAb in medium ITLB. Retinol (2×10^-6 M) was added at initiation of culture, or delayed by 12 hours and 24 hours, respectively, or omitted altogether. ^3 H thymidine pulses of 4 hours were used to measure DNA synthesis of hexaduplicate wells.
Thymuses of 3 to 6-week-old BALB/c mice were teased in serum-free RPMI medium supplemented with 1% BSA, 10^-6 M linoleic acid and antibiotics. Depletion of accessory cells was achieved by two cycles of complement-dependent lysis with a mixture of anti-IA^d (5 μg/ml) and anti-IE^d (1:500 diluted ascites fluid). Briefly, cells were incubated on ice for 30 minutes with Ia antibodies, spun down, resuspended in 1:40 diluted rabbit complement, and incubated at 37° C. for 45 minutes. Incubations and two subsequent washes were carried out with RPMI medium containing 1% BSA. Cell viability was evaluated by trypan blue dye exclusion. To determine the extent of depletion of accessory cells, samples were stained with FITC-conjugated anti-Fc receptor antibody and analyzed by flow cytometry on a FACScan instrument (Becton Dickinson).
Cells were cultured in serum-free medium, referred to as ITLB, containing RPMI 1640 supplemented with 8×10^-7 M insulin (5 μg/ml), 7×10^-8 M transferrin (5 μg/ml), 2×10^-6 M linoleic acid, 2×10^-6 M delipidated BSA (0.12 mg/ml), 2 mM L-glutamine, 1 mM sodium pyruvate and antibiotics. They were seeded into 96-well flat-bottom plates at varying cellular densities in a final volume of 100 μl. In control experiments, cells were cultured in medium containing 10% FCS or 3% human serum and 5×10^-5 M 2ME. T cells and thymocytes were activated with immobilized, purified anti-mAb CD3e or by the addition of Con A in the presence or absence of different concentrations of retinoids. Unless indicated otherwise, retinoids were replenished every 12 hours to maintain a reasonably constant concentration of these labile compounds in culture. […] Cultures were carried out in duplicate. Plates were incubated at 37° C. in a humidified 5% CO2 atmosphere. Cellular proliferation was determined by [^3 H] thymidine uptake (0.5 uCi/well; New England Nuclear, Boston, Mass.) after the incubation times indicated for each experiment with a 4 hour labeling pulse.

[3] = system: T cells; assay: T cell activation and proliferation, retinol cofactor requirement; assay type: cell-based, murine
Experimental: They were seeded into 96-well flat-bottom plates at varying cellular densities in a final volume of 100 μl. In control experiments, cells were cultured in medium containing 10% FCS or 3% human serum and 5×10^-5 M 2ME. […] Cultures were carried out in duplicate. Plates were incubated at 37° C. in a humidified 5% CO2 atmosphere. Cellular proliferation was determined by [^3 H] thymidine uptake (0.5 uCi/well; New England Nuclear, Boston, Mass.) after the incubation times indicated for each experiment with a 4 hour labeling pulse. Cells were harvested onto glass filter and [^3 H]TdR incorporation was determined by liquid scintillation counting. The data presented are the means of duplicate or six replicate cultures. The restriction to duplicate measurements was necessary to conserve scarce 14HRR. […] Each experiment was repeated at least twice.

[4] = system: lymphoblastoid cells (LCL); details: cited from earlier work
[5] = system: activated human thymocytes; details: cited from earlier work

Structure (SMILES) | restoration of proliferation in absence of retinol [1] | reduction of sufficient retinol concentration with repeated feeding ([2]; replenished twice daily, 3-day culture) | proliferative response of anti-CD3e activated thymocytes [2] | growth kinetics over four days [2] | T cell activation in FCS-containing medium ([3]; FCS-containing medium, absence of APC) | support of growth of LCL in serum-free medium [4] | support of growth of activated human thymocytes [5] | effectiveness relative to retinol [2] | ability to substitute for retinol in T cell activation (words) ([3]; listed as retinoic acid) | dose optimum ([2]; provided at 12 hour intervals) [nM] | effect of a single addition at start of culture ([2]; single addition) | ability to substitute for retinol in T cell activation (words) [3]
CC1=C(/C=C/C(C)=C/C=C/C(C)=C/CO)C(C)(C)CCC1 [retinol, all-trans retinol] | restores the capacity to proliferate | five- to ten-fold lower | vigorous responses were elicited | exponential growth | no activation in the absence of APC, whether or not additional retinol is supplied | support the growth of LCL in serum-free medium | The same is true for activated human thymocytes |  |  |  |  | 
CC1=C(/C=C/C(C)=C/C=C/C(C)=C/C(=O)O)C(C)(C)CCC1 [all-trans retinoic acid] |  |  |  |  |  | but not retinoic acid, support the growth of LCL in serum-free medium | The same is true for activated human thymocytes | completely inactive | cannot be satisfied by retinoic acid; also recorded: T lymphocytes neither respond to externally provided retinoic acid |  |  | 
CC(C=CC=C(C)C(O)CO)=CC=C1C(C)=CCCC1(C)C (stereo not drawn) [14HRR, 14-hydroxy-4,14-retro-retinol] | restores the capacity to proliferate |  | vigorous responses were elicited | exponential growth |  |  |  | as potent as retinol |  | 500 | ineffective; also recorded: does not enable sustained proliferation; also recorded: insufficient to drive T cell proliferation | effectively supports T cell activation in conjunction with a mitogen in lieu of retinol; also recorded: capable of supporting activation and sustaining proliferation of T cells; also recorded: capable of supporting T cell activation and proliferation in the absence of any extraneous source of retinal
